In general, IC50 refers to the concentration that gives 50% inhibition. The low end stands for inhibition by little substance, the high end for a need for much substance.

Eleven compounds from patent publication US4503043A, “Substituted acyl derivatives of octahydro-1H-isoindole-1-carboxylic acids” (Warner-Lambert Company, priority 1982, dated 1985) can be followed below.

Molecules are shown by their SMILES. Structures can show the parent of a compound that is named as a salt.

The test concerns the target T1, guinea pig serum ACE (angiotensin converting enzyme) (Cavia porcellus, UniProt H0UWL7).
T1 construct: ACE from guinea pig serum; from tissue; host or cells: guinea pig serum
T1 sequence (H0UWL7 33-1302): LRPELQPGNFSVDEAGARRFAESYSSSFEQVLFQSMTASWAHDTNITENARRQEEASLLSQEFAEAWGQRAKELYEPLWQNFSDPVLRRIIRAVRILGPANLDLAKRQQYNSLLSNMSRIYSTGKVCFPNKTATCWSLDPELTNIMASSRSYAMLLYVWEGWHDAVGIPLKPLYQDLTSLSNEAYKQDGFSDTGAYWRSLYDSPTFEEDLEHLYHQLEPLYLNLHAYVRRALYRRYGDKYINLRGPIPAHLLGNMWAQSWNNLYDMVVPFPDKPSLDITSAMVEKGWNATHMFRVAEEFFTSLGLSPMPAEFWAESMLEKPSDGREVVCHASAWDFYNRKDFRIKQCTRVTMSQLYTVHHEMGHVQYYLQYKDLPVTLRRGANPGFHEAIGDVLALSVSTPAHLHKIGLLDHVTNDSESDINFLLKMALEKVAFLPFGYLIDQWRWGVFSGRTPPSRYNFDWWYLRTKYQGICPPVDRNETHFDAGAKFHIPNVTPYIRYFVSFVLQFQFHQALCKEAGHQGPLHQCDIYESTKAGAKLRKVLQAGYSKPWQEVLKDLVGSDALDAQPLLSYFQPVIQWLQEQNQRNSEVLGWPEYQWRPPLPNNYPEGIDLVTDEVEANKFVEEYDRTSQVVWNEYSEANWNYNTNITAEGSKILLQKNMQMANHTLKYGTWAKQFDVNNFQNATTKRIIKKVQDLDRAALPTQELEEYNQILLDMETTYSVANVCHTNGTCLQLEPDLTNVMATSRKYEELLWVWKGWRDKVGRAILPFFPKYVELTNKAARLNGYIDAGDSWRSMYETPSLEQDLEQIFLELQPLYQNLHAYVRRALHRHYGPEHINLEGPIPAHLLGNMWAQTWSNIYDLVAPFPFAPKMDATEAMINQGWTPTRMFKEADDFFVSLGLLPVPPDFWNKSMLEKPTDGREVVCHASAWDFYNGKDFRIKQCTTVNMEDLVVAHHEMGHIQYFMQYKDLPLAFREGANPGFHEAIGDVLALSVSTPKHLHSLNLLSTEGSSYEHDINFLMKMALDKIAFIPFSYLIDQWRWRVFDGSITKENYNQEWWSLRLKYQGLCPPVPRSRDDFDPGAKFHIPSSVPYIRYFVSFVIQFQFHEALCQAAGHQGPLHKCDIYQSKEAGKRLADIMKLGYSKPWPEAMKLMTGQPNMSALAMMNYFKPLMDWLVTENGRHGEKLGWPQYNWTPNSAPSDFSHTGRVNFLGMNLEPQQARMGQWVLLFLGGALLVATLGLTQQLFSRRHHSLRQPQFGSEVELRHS
Description: In vitro ACE Assay (angiotensin converting enzyme inhibitory activity). The settings on record: 10 min preincubation, substrate 3H-hippuryl-glycylglycine, 60 min at 37° C. It counts as biochemical. How it is done:
In vitro ACE Assay: Angiotensin converting enzyme (ACE) inhibitory activity is determined by assaying guinea pig serum ACE in the presence and absence of the test compound. ACE from guinea pig serum and the test compounds are preincubated for 10 minutes before the addition of the labelled substrate ^3 H-hippuryl-glycylglycine. After a 60 minute incubation at 37° C. the reaction is stopped by the addition of 0.1N HCl. ACE cleaves the hippuryl-glycyl bond to form the dipeptide glycyl-glycine and ^3 H-hippuric acid. The ^3 H-hippuric acid is then extracted with ethyl acetate and the ACE inhibition of a given sample calculated on the basis of the ^3 H-hippuric acid generated.

Take `CC(=O)SCCC(=O)N1CC2CCCCC2C1C(=O)O` (centres unmarked) [Example 1, 2-[3-(Acetylthio)-1-oxopropyl]octahydro-1H-isoindole-1-carboxylic acid]: half-maximal inhibition (IC50) was put at 1.2 µM.

Regarding `O=C(O)C1C2CCCCC2CN1C(=O)CCS` (centres unmarked) [Example 2, 2-(3-Mercaptopropanoyl)octahydro-1H-isoindole-1-carboxylic acid, dicyclohexylamine salt], the IC50 is 0.024 µM.

For `CC(=O)SCC(C)C(=O)N1CC2CCCCC2C1C(=O)O` (centres unmarked) [Example 3, 2-[3-(Acetylthio)-2-methyl-1-oxopropyl]octahydro-1H-isoindole-1-carboxylic acid], the IC50 turned out to be 0.42 µM.

The compound `CC(CS)C(=O)N1CC2CCCCC2C1C(=O)O` (centres unmarked) [Example 4, 2-[3-Mercapto-2-methyl-1-oxopropyl]octahydro-1H-isoindole-1-carboxylic acid] registered an IC50 of 0.028 µM.

On to `CC(=O)SCCC(=O)N1C(=O)C2CCCCC2C1C(=O)O` (centres unmarked) [Example 5, 2-[3-Acetylthio-1-oxopropyl]octahydro-3-oxo-1H-isoindole-1-carboxylic acid, dicyclohexylamine salt], for which the IC50 was 0.66 µM.

`O=C(O)C1C2CCCCC2C(=O)N1C(=O)CCS` (centres unmarked) [Example 6, 2-[3-Mercapto-1-oxopropyl]octahydro-3-oxo-1H-isoindole-1-carboxylic acid, dicyclohexylamine salt] displayed an IC50 of 0.013 µM.

Turning to `CC(=O)SCC(C)C(=O)N1C(=O)C2CCCCC2C1C(=O)O` (centres unmarked) [Example 7, 2-[3-(Acetylthio)-2-methyl-1-oxopropyl]octahydro-3-oxo-1H-isoindole-1-carboxylic acid, dicyclohexylamine salt], half-maximal inhibition (IC50) was put at 0.28 µM.

With `CC(CS)C(=O)N1C(=O)C2CCCCC2C1C(=O)O` (centres unmarked) [Example 8, 2-[3-(Mercapto-2-methyl-1-oxopropyl]octahydro-3-oxo-1H-isoindole-1-carboxylic acid, dicyclohexylamine salt], the IC50 was 0.014 µM.

With `CCOC(=O)C(CCc1ccccc1)NC(C)C(=O)N1CC2CCCCC2C1C(=O)O` (centres unmarked) [Example 12, 2-[2-[(1-Carbethoxy-3-phenylpropyl)amino]-1-oxopropyl]-octahydro-1H-isoindole-1-carboxylic acid, hydrochloride], it took 0.17 µM to reach half-maximal inhibition (IC50).

For `CC(NC(CCc1ccccc1)C(=O)O)C(=O)N1CC2CCCCC2C1C(=O)O` (centres unmarked) [Example 13, 2-[2-[(1-Carboxy-3-phenylpropyl)amino]-1-oxopropyl]-octahydro-1H-isoindole-1-carboxylic acid], half-maximal inhibition (IC50) was put at 0.0026 µM.

`CCOC(=O)[C@H](CCc1ccccc1)N[C@@H](C)C(=O)N1C(=O)C2CCCCC2C1C(=O)O` (some centres unmarked) [Example 14, 2-[2-[(1-carbethoxy-3-phenylpropyl)amino]-1-oxopropyl]-octahydro-3-oxo-1H-isoindole-1-carboxylic acid, hydrochloride] gave an IC50 of 0.34 µM.
